Each structure is given as a SMILES string.

Assay [1] addresses T1, spermine oxidase (SMO) (Homo sapiens, UniProt Q9NWM0). In kind it is biochemical.
Assay [2] concerns the target T1, spermine oxidase (SMO). Briefly: biochemical.

T1 sequence (Q9NWM0 whole entry): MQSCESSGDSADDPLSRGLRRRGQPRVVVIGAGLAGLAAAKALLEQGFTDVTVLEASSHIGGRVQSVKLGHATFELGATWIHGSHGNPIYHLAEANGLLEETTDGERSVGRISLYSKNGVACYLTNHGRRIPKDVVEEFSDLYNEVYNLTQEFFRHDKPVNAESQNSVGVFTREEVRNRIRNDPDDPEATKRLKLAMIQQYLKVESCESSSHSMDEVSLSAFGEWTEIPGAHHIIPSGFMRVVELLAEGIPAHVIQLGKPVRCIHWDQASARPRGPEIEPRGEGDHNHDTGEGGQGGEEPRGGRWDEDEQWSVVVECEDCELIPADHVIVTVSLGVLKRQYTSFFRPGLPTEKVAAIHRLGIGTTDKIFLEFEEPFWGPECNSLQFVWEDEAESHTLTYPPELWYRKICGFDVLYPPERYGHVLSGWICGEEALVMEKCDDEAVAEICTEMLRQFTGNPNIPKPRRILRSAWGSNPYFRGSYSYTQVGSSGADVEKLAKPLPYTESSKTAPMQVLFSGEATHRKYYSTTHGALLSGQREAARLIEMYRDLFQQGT

As usually defined, the Ki is the dissociation constant of the complex between target and ligand, obtained from inhibition or displacement. Low readings indicate a stronger hold on the target, high ones a looser hold on the target. Compound `c1ccc(CNCCCCNCc2ccccc2)cc1` [DBDB, N,N’-dibenzylbutane-1,4-diamine] returned a Ki at spermine oxidase (SMO) [1] of 320 ± 80 µM.
The compound `NCCCCNCCCN` [spermidine] displayed a Ki at spermine oxidase (SMO) [1] of 550 ± 20 µM.
For orientation: Kd means the free concentration of one partner at which half of the binding sites on the other are occupied at equilibrium, for simple one-to-one binding. High values mean lower affinity, low ones higher affinity. Take `NCCCNCCCCNCCCN` [spermine]: the affinity at spermine oxidase (SMO) [2], expressed as Kd, was 48 ± 8.2 µM.
